Entries after “also recorded” stand apart in the source; their conditions may differ.
How the values were obtained:
MM.1S cells = assay: Tumor cell killing effect, CCK analysis; type: cell-based, human; conditions: 0 to 10 μM, 3 days, dissolved in DMSO or D.W.
Protocol: To this end, a human multiple myeloma cell line, MM.1S (CRL-2974), was purchased from the American Type Culture Collection (ATCC, Manassas, VA, USA), and incubated using a RPMI1640 medium (Corning, MD, USA) supplemented with a 10% bovine fetal serum (Corning, MD, USA), 100 U/mL penicillin (Corning, MD, USA), and 100 μg/mL streptomycin (Corning, MD, USA) at 37° C. in a 5% CO2 incubator for 24 hours. The cells were seeded at 1×10^4 cells/well in a 96-well plate, incubated for 24 hours, further incubated for 3 days after treatment with 0, 0.005, 0.014, 0.041, 0.123, 0.37, 1.111, 3.333, or 10 μM of ribose-lenalidomide dissolved in DMSO or D.W., and then analyzed using a CCK analysis kit (Dojindo, Japan) according to the manufacturer's instructions.

[1] = Water solubility, stepwise addition of water, classed by USP23; type: physicochemical
Protocol: 3 mg of lenalidomide (Combi-Block, Inc. San Diego, CA, USA) and ribose-lenalidomide were each weighed and placed in a 1.5 mL Eppendorf tube, 0.03 mL of water was added thereto, and then the mixture was vortexed for one minute and then centrifuged at 15,000 rpm for 1 minute, and an undissolved compound was precipitated. When the precipitated compound was visible, 0.03 mL of water was added, and the above process was repeated.
The solubility was determined by Table 1 as defined in United States Pharmacopeia 23 (USP23).

CK1α = molecular target: T1, CK1α (Homo sapiens, UniProt P48729+Q96SW2); assay: CK1α degradation in MM.1S cells, western blot; type: cell-based; conditions: 1 μM or 10 μM, 24 hours
T1 construct: endogenous in cells; host or cells: MM.1S (ATCC CRL-2974)
Protocol: (§1) After seeding the cells and incubating the cells for 24 hours, each compound was further incubated for 24 hours after treatment with 1 μM or 10 μM of each compound. The cells were lysed in a RIPA buffer containing a protease inhibitor cocktail (Thermo Fisher Scientific) and centrifuged at 14,000 rpm for 15 minutes at 4° C., thereby obtaining a cell extract. The cell extract was loaded at the same amount, separated using SDS-PAGE, and transferred to a PVDF membrane. The protein-transferred membrane was blocked using skim milk, subjected to o/n incubation with a primary antibody at 4° C., and incubated with an HRP-attached secondary antibody at 4° C. for 1 hour. The cells were washed with TBS-T three times between steps. Detection was performed by applying a chemiluminescence reagent (Thermo Fisher Scientific), and confirmation was performed using Chemidoc (iBright CL1000, Invitrogen, CA, USA).

[2] = test system: choroidal neovascularization lesion; assay: Macular degeneration treatment effect, laser-induced mouse CNV model (wet AMD); type: in vivo; conditions: for CNV lesion, intravitreal administration: once immediately after laser irradiation, fluorescent staining of blood vessels
Protocol: It was intended to confirm the healing efficacy of a lesion in a mouse CNV model, which is a wet senile macular degeneration (wet AMD) model.
To this end, five C57BL/6 (Koatech, Korea) male mice (aged 7 weeks) were used, and after 1 week of acclimation, the 8-week-old mice were anesthetized using ketamine hydrochloride (100 mg/kg, I.P.), and a drop of Mydriacyl (tropicamide) eye drops was placed on the right eye to induce mydriasis. After 3 minutes, the mouse was placed on a stand attached to a slit lamp, and a coverslip was put on the right eye to serve as a contact lens. After illuminating the optic nerve head using the slip lamp, four laser spots (200 mW, 50 μm spot size, 100-ms duration) around the optic nerve head were irradiated using a 532 nm laser device (Irdiex Oculight Tx, USA) attached to the slit lamp.
After forming a choroidal neovascularization lesion as described above, a solution prepared by dissolving ribose-lenalidomide in PBS was administered to the lesion. For intravitreal administration, 1.5 μL of the solution with a concentration of 0.2 μg/mL was administered once immediately after laser irradiation using a 25 μL Hamilton syringe with a 33G needle. Meanwhile, ribose-lenalidomide was dissolved in PBS to have a concentration of 2 mg/mL, prepared in the form of eye drops, administered four times a day, and then 7 days or 14 days after administration, efficacy was confirmed through fluorescent staining of blood vessels.
Fluorescent staining was performed using Heidelberg Spectralis HRA+OCT device (Heidelberg, Germany) equipment, the mouse was anesthetized using ketamine hydrochloride (100 mg/kg, I.P.) and xylazine (10 mg/kg, I.P.), a drop of Mydriacyl (tropicamide) eye drops was placed on the right eye to induce mydriasis, 0.05 mL of 10% fluorescite (Alcon, USA) was administered via I.P. administration to stain blood vessels. Fluorescent images were taken 10 minutes after fluorescite injection.

Ikaros = molecular target: T2, Ikaros (Homo sapiens, UniProt Q13422+Q96SW2); assay: Ikaros degradation in MM.1S cells, western blot; type: cell-based; conditions: 1 μM or 10 μM, 24 hours
T2 construct: endogenous in cells; host or cells: MM.1S (ATCC CRL-2974)
Protocol: (§2) It is known that a thalidomide-based compound binds to an E3 ligase, cereblon (CRBN), and decomposes transcription factors Aiolos and Ikaros as substrates, thereby regulating the function of immune cells. Therefore, to confirm whether ribose-lenalidomide still maintains its immunomodulatory function, the Aiolos and Ikaros degradation effect was compared with its base, lenalidomide.
as §1

SALL4 = molecular target: T3, SALL4 (Homo sapiens, UniProt Q96SW2+Q9UJQ4); assay: SALL4 degradation in Tera-1 cell line (HTB-105), western blot; type: cell-based; conditions: 1 or 10 μM, compared with the base compound
T3 construct: endogenous in cells; host or cells: Tera-1 (ATCC HTB-105)
Protocol: The cell extract was loaded at the same amount, separated using SDS-PAGE, and transferred to a PVDF membrane. The protein-transferred membrane was blocked using skim milk, subjected to o/n incubation with a primary antibody at 4° C., and incubated with an HRP-attached secondary antibody at 4° C. for 1 hour. The cells were washed with TBS-T three times between steps. Detection was performed by applying a chemiluminescence reagent (Thermo Fisher Scientific), and confirmation was performed using Chemidoc (iBright CL1000, Invitrogen, CA, USA).

Aiolos = molecular target: T4, Aiolos (Homo sapiens, UniProt Q96SW2+Q9UKT9); assay: Aiolos degradation in MM.1S cells, western blot; type: cell-based; conditions: 1 μM or 10 μM, 24 hours
T4 construct: endogenous in cells; host or cells: MM.1S (ATCC CRL-2974)
Protocol: as §2, §1

cereblon (CRBN) protein = molecular target: T5, cereblon (CRBN) protein (Homo sapiens, UniProt Q96SW2); assay: CRBN binding affinity, Alpha assay of competitive inhibition of CRBN-dBET1 binding; conditions: compared with the base lenalidomide or pomalidomide
T5 construct: FLAG; purchased BPS Bioscience #79770
Text: An immunomodulatory amide-type compound such as lenalidomide is known to act by binding to the cereblon (CRBN) protein. Therefore, the binding affinity of ribose-lenalidomide for the cereblon (CRBN) protein was compared with that of its base, lenalidomide (Combi-Block, Inc. San Diego, CA, USA), for the cereblon (CRBN) protein.

multiple myeloma = conditions: combination of lenalidomide and dexamethasone; cited from earlier work

O=C1CCC(N2Cc3c(/N=C/[C@H](O)[C@H](O)[C@H](O)CO)cccc3C2=O)C(=O)N1 (stereo partly drawn) [ribose-lenalidomide (type 1)]
tumor cell killing effect / viability of MM.1S cells (MM.1S cells): effective in killing MM.1S cells | solubility term based on USP 23 ([1]; water): freely soluble | solubility at 1 min ([1]; water, thermodynamic from solid, D.W., no visible precipitate after vortexing and centrifugation): ≥ 100 mg/mL | CK1α degradation effect (CK1α): almost similar to lenalidomide | CNV lesion, eye drop administration ([2]; eye drops 2 mg/mL in PBS, four times a day, 7 or 14 days): distinct decrease in the lesion | CNV lesion, intravitreal administration [2]: distinct decrease in the lesion | Ikaros degradation effect (Ikaros): almost similar to lenalidomide | SALL4 degradation effect (teratogenic side effect) (SALL4): inhibited SALL4 degradation effect compared to lenalidomide | Aiolos degradation effect (Aiolos): almost similar to lenalidomide | CRBN binding affinity (cereblon (CRBN) protein): improved binding affinity

O=C1CCC(N2Cc3c(/N=C/[C@H](O)[C@@H](O)[C@H](O)[C@H](O)CO)cccc3C2=O)C(=O)N1 (stereo partly drawn) [glucose-lenalidomide (type 1)]
CNV lesion, intravitreal administration [2]: macular degeneration treatment effect was confirmed

Nc1cccc2c1CN(C1CCC(=O)NC1=O)C2=O (racemic) [lenalidomide, (RS)-3-(4-amino-1-oxo-1,3-dihydro-2H-isoindol-2-yl)piperidine-2,6-dione, reference compound]
water solubility in words ([1]; D.W.): completely insoluble in water; also recorded: barely dissolved in D.W | disease-free survival period (multiple myeloma): 13.4 months | overall survival period (multiple myeloma): 38 months

O=C1CCC(N2C(=O)c3cccc(NC[C@H](O)[C@@H](O)[C@H](O)[C@H](O)CO)c3C2=O)C(=O)N1 (stereo partly drawn) [glucose-pomalidomide (type 2)]
tumor cell killing effect / viability of MM.1S cells (MM.1S cells): not significantly reduced
